BindingDB's records for doi:10.1016/S0960-894X(01)80156-6 (1994)
Where a SMILES comes first, the peptide text is derived from it. Bridges are numbered along the chain shown (N, C = ends). [ ]: non-standard residue; d: D form. Aoc = NCCCCCCCC(=O)O; Ava = NCCCCC(=O)O

Molecular target: Endothelin A receptor (Oryctolagus cuniculus)
Experiment: Binding affinity against Endothelin A receptor in rabbit renal artery vascular smooth muscle membrane (ET-A)

| Compound | IC50 |
| --- | --- |
| CC[C@H](C)[C@H](NC(=O)[C@H](CC(=O)O)NC(=O)[C@H](CC(C)C)NC(=O)[C@H](Cc1c[nH]cn1)NC(=O)[C@@H]1CSSC[C@H](N)C(=O)N[C@@H](CO)C(=O)N[C@@H](CO)C(=O)N[C@@H](C(C)C)C(=O)N[C@@H](Cc2ccc(O)cc2)C(=O)N[C@@H](Cc2ccccc2)C(=O)N1)C(=O)N[C@H](C(=O)N[C@@H](Cc1c[nH]c2ccccc12)C(=O)O)[C@@H](C)CC [Trp-Ile-Ile-Asp-Leu-Hisc(Cys-Ser-Ser-Val-Tyr-Phe-Cys)] (H-CSSVYFCHLDIIW-OH; disulfide 1-7) | 2 µM |
| CC[C@H](C)[C@H](NC(=O)[C@H](CC(=O)O)NC(=O)[C@H](CC(C)C)NC(=O)[C@H](Cc1c[nH]cn1)NC(=O)[C@@H]1CSSC[C@H](N)C(=O)N[C@@H](CO)C(=O)NCCCCC(=O)N[C@@H](C(C)C)C(=O)N[C@@H](Cc2ccc(O)cc2)C(=O)N[C@@H](Cc2ccccc2)C(=O)N1)C(=O)N[C@H](C(=O)N[C@@H](Cc1c[nH]c2ccccc12)C(=O)O)[C@@H](C)CC [Trp-Ile-Ile-Asp-Leu-Hisc(Cys-Ser-Apa-Val-Tyr-Phe-Cys)] (H-CS[Ava]VYFCHLDIIW-OH; disulfide 1-7) | 2.5 µM |
| CC[C@H](C)[C@H](NC(=O)[C@H](CC(=O)O)NC(=O)[C@H](CC(C)C)NC(=O)[C@H](Cc1cnc[nH]1)NC(=O)[C@@H]1CSSC[C@H](N)C(=O)N[C@@H](CO)C(=O)NCCCCCCCC(=O)N[C@@H](C(C)C)C(=O)N[C@@H](Cc2ccc(O)cc2)C(=O)N[C@@H](Cc2ccccc2)C(=O)N1)C(=O)N[C@H](C(=O)N[C@@H](Cc1c[nH]c2ccccc12)C(=O)O)[C@@H](C)CC [Trp-Ile-Ile-Asp-Leu-Hisc(Cys-Ser-Aoa-Val-Tyr-Phe-Cys)] (H-CS[Aoc]VYFCHLDIIW-OH; disulfide 1-7) | 1.8 µM |
| CC[C@H](C)[C@H](NC(=O)[C@H](CC(=O)O)NC(=O)[C@H](CC(C)C)NC(=O)[C@H](Cc1c[nH]cn1)NC(=O)[C@@H]1CSSC[C@H](N)C(=O)N[C@@H](CO)C(=O)N[C@@H](C(C)C)C(=O)N[C@@H](Cc2ccc(O)cc2)C(=O)N[C@@H](Cc2ccccc2)C(=O)N1)C(=O)N[C@H](C(=O)N[C@@H](Cc1c[nH]c2ccccc12)C(=O)O)[C@@H](C)CC [Trp-Ile-Ile-Asp-Leu-Hisc(Cys-Ser-Val-Tyr-Phe-Cys)] (H-CSVYFCHLDIIW-OH; disulfide 1-6) | 3.8 µM |
